Earlier results, collected in US7662599B2, “Nucleic acids and polypeptides involved in the production of cryptophycin” (priority 2004, dated 2010).

Conditions: comparison in words

COc1ccc(C[C@H]2NC(=O)/C=C/C[C@@H]([C@H](C)[C@H]3O[C@@H]3c3ccccc3)OC(=O)[C@H](CC(C)C)OC(=O)[C@H](C)CNC2=O)cc1Cl [Cryptophycin 1]
activity relative to other cryptophycins: the most active natural compound
